Experimental data taken from paper PMC9415947 (Pharmaceuticals, 2022).
Like-named read-outs stand apart in the source and are kept apart here.

Assays:
PI3Kδ [1] = biological target: T1, PI3Kδ (Homo sapiens, UniProt O00329); conditions: cited from earlier work
T1 construct: purchased Merck Millipore

PI3Kα [2] = biological target: T2, PI3Kα (Homo sapiens, UniProt P42336); conditions: PI3Kδ versus PI3Kα, in words; cited from earlier work
T2 construct: purchased Merck Millipore (methods text)

PI3Kδ [3] = biological target: T1, PI3Kδ; assay: In vitro PI3K inhibition assay (ADP-Glo kinase assay), PI3Kδ; assay type: biochemical; conditions: mean of two independent experiments
Method: (§1) All compounds were tested in a biochemical assay that measured the inhibition of phosphatidylinositol […] production by PI3K isoforms using the ADP-Glo kinase assay (Promega). In addition, the effects of synthesized compounds on B cell proliferation were measured.
(§2) The potency and selectivity of compounds were assessed by measuring the ability of PI3K kinases to convert ATP to ADP during an enzymatic reaction in the presence of decreasing doses of tested compounds. The experiments were carried out using the ADP-Glo kinase assay kit (Promega), according to the manufacturer’s protocol. PI3Kα, PI3Kβ, PI3Kδ, and PI3Kγ have been purchased from Merck Millipore and phosphoinositol-4,5-bisphosphate (PIP2) lipid vesicles with phosphoserine from ThermoFisher Scientific were used as a substrate in the enzymatic reaction.
(§3) After the reaction, the ADP-Glo reagent and the kinase detection reagent were added sequentially with 40 min of incubation (25 °C, 600 rpm) after adding each reagent. Finally, the luminescence intensity was measured and the IC50 was calculated using GraphPad Prism 7 software. The presented results are the mean value of IC50 from at least two independent experiments.

PI3Kα [4] = biological target: T2, PI3Kα; assay: In vitro PI3K inhibition assay (ADP-Glo kinase assay), PI3Kα; assay type: biochemical; conditions: for Fold Selectivity α/δ: ratio IC50 PI3Kα / IC50 PI3Kδ
Method: as §1, §2, §3

PI3Kβ = biological target: T3, PI3Kβ (Homo sapiens, UniProt P42338); assay: In vitro PI3K inhibition assay (ADP-Glo kinase assay), PI3Kβ; assay type: biochemical; conditions: for IC50: mean of two independent experiments; for Fold Selectivity β/δ: ratio IC50 PI3Kβ / IC50 PI3Kδ
T3 construct: purchased Merck Millipore
Method: as §1, §2, §3

PI3Kγ = biological target: T4, PI3Kγ (Homo sapiens, UniProt P48736); assay: In vitro PI3K inhibition assay (ADP-Glo kinase assay), PI3Kγ; assay type: biochemical; conditions: for IC50: mean of two independent experiments; for Fold Selectivity γ/δ: ratio IC50 PI3Kγ / IC50 PI3Kδ
T4 construct: purchased Merck Millipore
Method: as §1, §2, §3

CD19+ B cells = assay: B cell (CD19+) proliferation assay, CFSE flow cytometry; assay type: cell-based; conditions: Homo sapiens, 96 h; B cell proliferation, activated by αIgM and ODN2006, 4 days; read-out: IC50 CD19
Method: CD19 cells were isolated from PBMCs using magnetic beads (Stem Cell (Vancouver, Canada)) and then labeled with 2 µM of CFSE (Invitrogen (Waltham, MA, USA)).
After 4 days, cells were stained with LIVE/DEAD™ kit (Invitrogen (Waltham, MA, USA)). Samples were acquired using Attune NxT flow cytometer (Invitrogen) and analyzed using FlowJo software. Each biological assay was performed with cells isolated from a different donor. The presented results constitute the average percentage values of proliferating cells from 3 independent experiments.
Human PBMCs were isolated from buffy coats of healthy donors obtained from the Regional Blood Donation and Blood Medicine Center in Warsaw. Lymphocytes B: CD19+ cells were isolated from PBMCs on magnetic beads (Stem Cell), labeled with 2 µM CFSE (Invitrogen), and seeded on a 96-well plate (1 × 10^5 cells/well). B cells were activated by 2 µg/mL of αIgM (Jackson ImmunoResearch) and 1 µg/mL of ODN2006 (InvivoGen). Cells were incubated with increasing concentrations of compounds (range 0.03–10,000 nM). After 4 days, B cells were stained with LIVE/DEAD™ kit (Invitrogen), acquired using the Attune NxT flow cytometer (Invitrogen), and analyzed using FlowJo10 software. For data normalization, the percentage value of proliferating cells in each sample was divided by the average percentage value of positive control in a single experiment. IC50 values were calculated using a three-parameter dose–response inhibition function in GraphPad Prism.

PI3Kδ [5] = biological target: T1, PI3Kδ; conditions: cited from earlier work; remark: listed apart in the source

T4 sequence (P48736 whole entry): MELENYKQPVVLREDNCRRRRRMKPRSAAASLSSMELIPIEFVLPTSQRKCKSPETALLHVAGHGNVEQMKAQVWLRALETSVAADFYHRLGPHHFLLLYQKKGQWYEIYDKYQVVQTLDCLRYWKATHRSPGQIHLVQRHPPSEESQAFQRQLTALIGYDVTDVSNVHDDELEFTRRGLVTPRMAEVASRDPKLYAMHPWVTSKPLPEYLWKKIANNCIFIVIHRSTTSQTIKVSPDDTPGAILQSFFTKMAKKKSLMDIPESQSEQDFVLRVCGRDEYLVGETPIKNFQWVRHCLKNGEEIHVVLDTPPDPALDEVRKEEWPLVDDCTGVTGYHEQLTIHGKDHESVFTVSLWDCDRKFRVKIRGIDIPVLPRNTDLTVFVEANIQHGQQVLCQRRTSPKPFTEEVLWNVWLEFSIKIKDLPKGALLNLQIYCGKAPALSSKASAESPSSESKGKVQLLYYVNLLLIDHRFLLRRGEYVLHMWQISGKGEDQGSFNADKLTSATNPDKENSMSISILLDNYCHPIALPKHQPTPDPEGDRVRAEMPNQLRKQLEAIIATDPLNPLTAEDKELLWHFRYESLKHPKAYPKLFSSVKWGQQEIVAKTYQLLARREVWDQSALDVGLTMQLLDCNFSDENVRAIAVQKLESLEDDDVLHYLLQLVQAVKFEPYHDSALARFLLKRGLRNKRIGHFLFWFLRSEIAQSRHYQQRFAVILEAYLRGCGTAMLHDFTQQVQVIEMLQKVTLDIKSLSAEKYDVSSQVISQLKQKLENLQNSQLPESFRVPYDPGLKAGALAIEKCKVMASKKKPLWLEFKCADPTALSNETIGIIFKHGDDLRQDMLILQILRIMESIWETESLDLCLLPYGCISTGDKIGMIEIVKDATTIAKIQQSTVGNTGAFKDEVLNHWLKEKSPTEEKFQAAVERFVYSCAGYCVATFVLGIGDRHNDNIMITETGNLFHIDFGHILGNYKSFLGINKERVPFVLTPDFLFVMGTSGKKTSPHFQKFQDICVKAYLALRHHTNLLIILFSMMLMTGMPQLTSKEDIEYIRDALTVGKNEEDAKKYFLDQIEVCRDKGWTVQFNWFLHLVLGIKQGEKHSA
T1 sequence (O00329 whole entry, looked up): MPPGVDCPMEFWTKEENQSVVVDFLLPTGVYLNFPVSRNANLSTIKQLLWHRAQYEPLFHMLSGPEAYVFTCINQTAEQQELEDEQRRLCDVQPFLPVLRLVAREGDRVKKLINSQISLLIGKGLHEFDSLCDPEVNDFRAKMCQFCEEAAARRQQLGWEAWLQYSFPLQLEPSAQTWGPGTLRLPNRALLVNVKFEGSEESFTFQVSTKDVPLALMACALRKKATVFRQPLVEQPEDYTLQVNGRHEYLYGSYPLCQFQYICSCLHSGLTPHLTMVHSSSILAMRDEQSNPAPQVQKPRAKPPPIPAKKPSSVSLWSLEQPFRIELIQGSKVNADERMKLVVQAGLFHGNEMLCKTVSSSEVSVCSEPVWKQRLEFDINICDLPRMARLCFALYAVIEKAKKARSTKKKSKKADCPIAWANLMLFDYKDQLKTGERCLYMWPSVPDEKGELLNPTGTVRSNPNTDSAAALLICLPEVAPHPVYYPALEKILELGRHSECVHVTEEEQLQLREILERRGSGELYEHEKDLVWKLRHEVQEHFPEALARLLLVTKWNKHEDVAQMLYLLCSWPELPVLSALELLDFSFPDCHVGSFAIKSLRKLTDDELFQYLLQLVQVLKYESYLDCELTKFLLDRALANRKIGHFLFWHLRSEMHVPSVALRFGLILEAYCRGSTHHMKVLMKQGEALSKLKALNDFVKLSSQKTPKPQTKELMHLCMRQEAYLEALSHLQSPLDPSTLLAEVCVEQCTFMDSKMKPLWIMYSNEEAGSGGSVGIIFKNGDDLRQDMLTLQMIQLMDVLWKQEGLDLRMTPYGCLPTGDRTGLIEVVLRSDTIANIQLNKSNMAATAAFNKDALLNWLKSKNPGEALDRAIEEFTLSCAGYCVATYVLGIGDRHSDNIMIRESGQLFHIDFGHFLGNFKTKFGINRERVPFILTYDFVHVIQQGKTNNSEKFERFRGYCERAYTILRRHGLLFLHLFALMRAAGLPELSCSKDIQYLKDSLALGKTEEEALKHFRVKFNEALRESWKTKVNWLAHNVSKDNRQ
T2 sequence (P42336 whole entry): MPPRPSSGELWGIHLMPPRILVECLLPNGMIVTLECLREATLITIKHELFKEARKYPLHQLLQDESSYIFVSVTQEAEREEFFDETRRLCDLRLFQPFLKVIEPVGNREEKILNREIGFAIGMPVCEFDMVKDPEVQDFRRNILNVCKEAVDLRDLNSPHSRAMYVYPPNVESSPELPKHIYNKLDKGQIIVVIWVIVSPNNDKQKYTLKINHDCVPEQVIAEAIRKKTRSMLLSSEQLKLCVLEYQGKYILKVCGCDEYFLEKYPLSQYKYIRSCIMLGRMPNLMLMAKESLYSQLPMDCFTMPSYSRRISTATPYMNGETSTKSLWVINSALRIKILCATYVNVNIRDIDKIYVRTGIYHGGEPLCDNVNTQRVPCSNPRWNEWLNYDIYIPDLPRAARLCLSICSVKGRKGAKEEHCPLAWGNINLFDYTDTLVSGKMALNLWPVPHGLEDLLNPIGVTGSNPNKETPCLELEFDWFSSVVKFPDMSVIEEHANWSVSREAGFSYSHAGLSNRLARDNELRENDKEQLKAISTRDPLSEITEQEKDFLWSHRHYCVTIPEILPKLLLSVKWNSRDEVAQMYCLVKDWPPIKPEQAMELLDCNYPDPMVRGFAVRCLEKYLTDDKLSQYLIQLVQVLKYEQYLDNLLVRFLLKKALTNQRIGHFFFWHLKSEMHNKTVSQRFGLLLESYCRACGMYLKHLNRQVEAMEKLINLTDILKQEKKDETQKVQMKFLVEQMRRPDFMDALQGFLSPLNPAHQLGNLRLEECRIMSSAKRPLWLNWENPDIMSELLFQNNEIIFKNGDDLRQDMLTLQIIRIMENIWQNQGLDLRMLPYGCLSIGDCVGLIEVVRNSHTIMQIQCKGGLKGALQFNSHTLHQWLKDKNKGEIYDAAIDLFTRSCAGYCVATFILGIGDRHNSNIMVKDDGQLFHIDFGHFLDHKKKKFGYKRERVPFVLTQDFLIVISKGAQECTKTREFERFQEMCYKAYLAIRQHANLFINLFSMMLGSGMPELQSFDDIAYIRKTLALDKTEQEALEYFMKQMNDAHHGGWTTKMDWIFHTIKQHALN
T2 sequence (P27986 whole entry partner): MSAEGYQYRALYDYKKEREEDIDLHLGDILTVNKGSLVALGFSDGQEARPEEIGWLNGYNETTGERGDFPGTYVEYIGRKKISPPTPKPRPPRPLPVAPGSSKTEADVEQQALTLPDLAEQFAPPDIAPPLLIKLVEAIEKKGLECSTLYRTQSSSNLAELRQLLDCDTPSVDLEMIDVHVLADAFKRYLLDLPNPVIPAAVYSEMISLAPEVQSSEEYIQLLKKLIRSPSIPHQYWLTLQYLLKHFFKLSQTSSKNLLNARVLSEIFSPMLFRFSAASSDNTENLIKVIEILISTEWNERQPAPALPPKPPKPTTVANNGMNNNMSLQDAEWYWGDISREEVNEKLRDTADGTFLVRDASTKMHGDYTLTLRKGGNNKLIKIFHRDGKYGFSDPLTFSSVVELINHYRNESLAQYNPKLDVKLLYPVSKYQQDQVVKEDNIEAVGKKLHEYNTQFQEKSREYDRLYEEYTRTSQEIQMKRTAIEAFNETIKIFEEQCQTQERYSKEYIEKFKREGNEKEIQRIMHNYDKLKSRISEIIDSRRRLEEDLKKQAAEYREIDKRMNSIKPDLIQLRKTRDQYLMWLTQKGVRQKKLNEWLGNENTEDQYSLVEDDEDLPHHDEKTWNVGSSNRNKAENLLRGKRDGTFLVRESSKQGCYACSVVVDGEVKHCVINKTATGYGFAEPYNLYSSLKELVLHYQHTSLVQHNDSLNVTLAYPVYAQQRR
T3 sequence (P42338 whole entry, looked up): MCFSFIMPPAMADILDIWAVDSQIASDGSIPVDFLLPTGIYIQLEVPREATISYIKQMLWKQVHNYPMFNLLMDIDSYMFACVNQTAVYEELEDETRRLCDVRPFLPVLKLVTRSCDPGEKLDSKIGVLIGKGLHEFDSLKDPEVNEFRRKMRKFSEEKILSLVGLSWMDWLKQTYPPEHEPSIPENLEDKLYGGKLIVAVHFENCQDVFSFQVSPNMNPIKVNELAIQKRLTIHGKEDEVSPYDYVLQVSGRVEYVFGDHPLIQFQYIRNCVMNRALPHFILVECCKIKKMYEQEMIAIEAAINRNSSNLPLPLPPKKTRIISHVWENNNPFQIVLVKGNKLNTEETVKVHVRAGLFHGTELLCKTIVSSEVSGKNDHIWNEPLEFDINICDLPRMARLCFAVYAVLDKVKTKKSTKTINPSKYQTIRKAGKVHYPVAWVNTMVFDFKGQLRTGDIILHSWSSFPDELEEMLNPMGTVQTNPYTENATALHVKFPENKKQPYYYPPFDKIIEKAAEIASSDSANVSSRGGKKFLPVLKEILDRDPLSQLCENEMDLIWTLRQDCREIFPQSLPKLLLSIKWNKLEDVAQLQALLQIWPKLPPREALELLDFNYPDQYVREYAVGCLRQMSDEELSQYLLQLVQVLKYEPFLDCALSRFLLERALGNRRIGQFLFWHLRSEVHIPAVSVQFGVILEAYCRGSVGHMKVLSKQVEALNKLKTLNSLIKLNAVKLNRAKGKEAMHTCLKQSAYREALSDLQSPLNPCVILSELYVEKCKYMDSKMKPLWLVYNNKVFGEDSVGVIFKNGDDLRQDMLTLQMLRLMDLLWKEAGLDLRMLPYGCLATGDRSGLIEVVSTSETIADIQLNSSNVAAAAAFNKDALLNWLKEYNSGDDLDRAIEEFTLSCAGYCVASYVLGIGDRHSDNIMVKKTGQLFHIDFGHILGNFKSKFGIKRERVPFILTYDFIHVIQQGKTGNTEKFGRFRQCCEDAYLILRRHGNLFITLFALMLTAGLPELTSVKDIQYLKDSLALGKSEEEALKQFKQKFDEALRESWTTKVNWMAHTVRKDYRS

| SMILES | IC50 (PI3Kδ [1]) [nM] | selectivity toward the alpha isoform (PI3Kα [2]) | IC50 (PI3Kδ [3]) [nM] | IC50 (PI3Kα [4]) [nM] | Fold Selectivity α/δ (PI3Kα [4]) | IC50 (PI3Kβ) [nM] | Fold Selectivity β/δ (PI3Kβ) | IC50 (PI3Kγ) [nM] | Fold Selectivity γ/δ (PI3Kγ) | IC50 (CD19+ B cells) [nM] | PI3Kγ/δ selectivity (PI3Kδ [5]) |
| --- | --- | --- | --- | --- | --- | --- | --- | --- | --- | --- | --- |
| Cc1cc2nc(-n3c(C(F)F)nc4ccccc43)cc(N3CCOCC3)n2n1 [Compound 1] | 475 | poor | – | – | – | – | – | – | – | – | – |
| Cc1nc2ccccc2n1-c1cc(N2CCOCC2)n2nc(CN3CCN(C(C)(C)C)CC3)cc2n1 [Compound 5, 1-{2-[(4-tert-butylpiperazin-1-yl)methyl]-7-(morpholin-4-yl)pyrazolo[1,5-a]pyrimidin-5-yl}-2-methyl-1H-benzimidazole] | – | – | 236 | 10600 | 45 | 298000 | 1264 | 175000 | 742 | – | – |
| CCc1nc2ccccc2n1-c1cc(N2CCOCC2)n2nc(CN3CCN(C(C)(C)C)CC3)cc2n1 [Compound 7, 1-{2-[(4-tert-butylpiperazin-1-yl)methyl]-7-(morpholin-4-yl)pyrazolo[1,5-a]pyrimidin-5-yl}-2-ethyl-1H-benzimidazole] | – | – | 385 | 28700 | 74 | 266000 | 690 | 258000 | 671 | – | – |
| CC(C)(C)N1CCN(Cc2cc3nc(-n4c(C5CC5)nc5ccccc54)cc(N4CCOCC4)n3n2)CC1 [Compound 8, 1-{2-[(4-tert-butylpiperazin-1-yl)methyl]-7-(morpholin-4-yl)pyrazolo[1,5-a]pyrimidin-5-yl}-2-cyclopropyl-1H-benzimidazole] | – | – | 1070 | 82500 | 77 | 259000 | 242 | 271000 | 253 | – | – |
| CC(C)(O)C1CCN(Cc2cc3nc(-n4c(C(F)F)nc5ccccc54)cc(N4CCOCC4)n3n2)CC1 [Compound 11, 2-[1-({5-[2-(difluoromethyl)-1H-benzimidazol-1-yl]-7-(morpholin-4-yl)pyrazolo[1,5-a]pyrimidin-2-yl}methyl)piperidin-4-yl]propan-2-ol] | – | – | 52 | 1730 | 33 | – | – | 6350 | 122 | – | – |
| Cc1nc2ccccc2n1-c1cc(N2CCOCC2)n2nc(CN3CCC(C(C)(C)O)CC3)cc2n1 [Compound 12, 2-(1-{[5-(2-methyl-1H-1,3-benzimidazol-1-yl)-7-(morpholin-4-yl)pyrazolo[1,5-a]pyrimidin-2-yl]methyl}piperidin-4-yl)propan-2-ol] | – | – | 878 | 30500 | 35 | 195000 | 222 | 119000 | 136 | – | – |
| CS(=O)(=O)N1CCN(Cc2cc3nc(-n4c(C(F)F)nc5ccccc54)cc(N4CCOCC4)n3n2)CC1 [Compound 16, 2-(difluoromethyl)-1-{2-[(4-methanesulfonylpiperazin-1-yl)methyl]-7-(morpholin-4-yl)pyrazolo[1,5-a]pyrimidin-5-yl}-1H-1,3-benzimidazole] | – | – | 43 | 44 | 1.0 | 13600 | 316 | 111 | 2.6 | 114 | – |
| CC(C)(C(N)=O)N1CCN(Cc2cc3nc(-n4c(C(F)F)nc5ccccc54)cc(N4CCOCC4)n3n2)CC1 [Compound 17, 2-[4-({5-[2-(difluoromethyl)-1H-1,3-benzimidazol-1-yl]-7-(morpholin-4-yl)pyrazolo[1,5-a]pyrimidin-2-yl}methyl)piperazin-1-yl]-2-methylpropanamide] | – | – | 31 | 624 | 20 | 44800 | 1444 | 2200 | 71 | 52 | – |
| O=C(C1CC1)N1CCN(Cc2cc3nc(-n4c(C(F)F)nc5ccccc54)cc(N4CCOCC4)n3n2)CC1 [Compound 18] | – | – | 24 | 73 | 3.0 | 47400 | 1973 | 156 | 6.5 | 58 | – |
| O=C(c1cc2nc(-n3c(C(F)F)nc4ccccc43)cc(N3CCOCC3)n2n1)N1CCC(O)CC1 [Compound 53, 1-{5-[2-(difluoromethyl)-1H-1,3-benzimidazol-1-yl]-7-(morpholin-4-yl)pyrazolo[1,5-a]pyrimidine-2-carbonyl}piperidin-4-ol] | – | – | 195 | – | – | – | – | 2080 | 11 | – | – |
| CC(=O)NC1CCN(C(=O)c2cc3nc(-n4c(C(F)F)nc5ccccc54)cc(N4CCOCC4)n3n2)CC1 [Compound 54, N-(1-{5-[2-(difluoromethyl)-1H-1,3-benzimidazol-1-yl]-7-(morpholin-4-yl)pyrazolo[1,5-a]pyrimidine-2-carbonyl}piperidin-4-yl)acetamide] | – | – | 141 | – | – | – | – | 1690 | 12 | – | – |
| CNC(=O)CN1CCN(C(=O)c2cc3nc(-n4c(C(F)F)nc5ccccc54)cc(N4CCOCC4)n3n2)CC1 [Compound 55, 2-(4-{5-[2-(difluoromethyl)-1H-1,3-benzimidazol-1-yl]-7-(morpholin-4-yl)pyrazolo[1,5-a]pyrimidine-2-carbonyl}piperazin-1-yl)-N-methylacetamide] | – | – | 82 | – | – | – | – | 2170 | 26 | – | – |
| CN1CCN(C(=O)c2cc3nc(-n4c(C(F)F)nc5ccccc54)cc(N4CCOCC4)n3n2)CC1 [Compound 56, 2-(difluoromethyl)-1-[2-(4-methylpiperazine-1-carbonyl)-7-(morpholin-4-yl)pyrazolo[1,5-a]pyrimidin-5-yl]-1H-1,3-benzimidazole] | – | – | 768 | – | – | – | – | 11400 | – | – | – |
| CC(C)N1CCN(C(=O)c2cc3nc(-n4c(C(F)F)nc5ccccc54)cc(N4CCOCC4)n3n2)CC1 [Compound 57, 2-(difluoromethyl)-1-[7-(morpholin-4-yl)-2-[4-(propan-2-yl)piperazine-1-carbonyl]pyrazolo[1,5-a]pyrimidin-5-yl]-1H-1,3-benzimidazole] | – | – | 271 | – | – | – | – | 25500 | – | – | – |
| CS(=O)(=O)N1CCN(Cc2cc3nc(-c4cccc5[nH]ncc45)nc(N4CCOCC4)c3s2)CC1 [GDC-0941, 2-(1 H -Indazol-4-Yl)-6-(4-Methanesulfonyl-Piperazin-1-Ylmethyl)-4-Morpholin-4-Yl-Thieno [3,2-d]Pyrimidine] | – | – | – | – | – | – | – | – | – | – | poor |
